Source: the supplement of paper PMC13207355
Counter-ions that a name gives are not always drawn.

How the values were obtained:
Details in all cases: exposure time: 72 h
E21 [1] = patient-derived glioblastoma stem cells of mesenchymal subtype; test: phenotypic distance (Euclidean, principal components) from DMSO controls (arbitrary units); higher = stronger morphological change
E31 [2] = patient-derived glioblastoma stem cells of proneural subtype; test: as above
E28 [3] = patient-derived glioblastoma stem cells of classical subtype; test: as above
FT3469 [4] = normal neural stem cell line; test: as above
E13 [5] = patient-derived glioblastoma stem cells of classical subtype; test: as above
E34 [6] = patient-derived glioblastoma stem cells of proneural subtype; test: as above
E57 [7] = patient-derived glioblastoma stem cells of mesenchymal subtype; test: as above
E21 [8] = test: surviving fraction (nuclei count normalised to DMSO); higher = more cells surviving (less toxic)
E31 [9] = test: as above
E28 [10] = test: as above
FT3469 [11] = test: as above
E13 [12] = test: as above
E34 [13] = test: as above
E57 [14] = test: as above
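Wherever phenotypic distance (Euclidean, principal components) from DMSO controls is given: cell Painting imaging in 384-well plates, CellProfiler features reduced to at least 20 principal components, Euclidean distance versus same-plate DMSO vehicle wells (0.1% v/v), median over six images per well.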
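Wherever surviving fraction (nuclei count normalised to DMSO) is given: nuclei counted by high-content imaging of Hoechst-stained cells in laminin-coated 384-well plates, relative to 0.1% DMSO vehicle wells, with staurosporine as cell-death control.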

CC[C@]1(O)C[C@@H]2CN(CCc3c([nH]c4ccccc34)[C@@](C(=O)OC)(c3cc4c(cc3OC)N(C)[C@H]3[C@@](O)(C(=O)OC)[C@H](OC(C)=O)[C@]5(CC)C=CCN6CC[C@]43[C@@H]65)C2)C1 [Vinblastine sulfate]
Details	phenotypic distance	surviving fraction
E13 [5], 4.1 nM	7.96	–
E13 [5], 12.3 nM	7.11	–
E13 [5], 37 nM	8.76	–
E13 [5], 111.1 nM	7.57	–
E13 [5], 333.3 nM	9.22	–
E13 [5], 1000 nM	8.93	–
E13 [5], 3000 nM	9.73	–
E13 [12], 4.1 nM	–	0.22
E13 [12], 12.3 nM	–	0.177
E13 [12], 37 nM	–	0.175
E13 [12], 111.1 nM	–	0.159
E13 [12], 333.3 nM	–	0.171
E13 [12], 1000 nM	–	0.162
E13 [12], 3000 nM	–	0.194
E21 [1], 4.1 nM	9.17	–
E21 [1], 12.3 nM	9.98	–
E21 [1], 37 nM	11.1	–
E21 [1], 111.1 nM	9.54	–
E21 [1], 333.3 nM	8.35	–
E21 [1], 1000 nM	8.21	–
E21 [1], 3000 nM	11	–
E21 [8], 4.1 nM	–	0.0927
E21 [8], 12.3 nM	–	0.0948
E21 [8], 37 nM	–	0.0937
E21 [8], 111.1 nM	–	0.08
E21 [8], 333.3 nM	–	0.0642
E21 [8], 1000 nM	–	0.0421
E21 [8], 3000 nM	–	0.0326
E28 [3], 4.1 nM	3.12	–
E28 [3], 12.3 nM	3.85	–
E28 [3], 37 nM	4.99	–
E28 [3], 111.1 nM	4.47	–
E28 [3], 333.3 nM	5.63	–
E28 [3], 1000 nM	6.15	–
E28 [3], 3000 nM	6.57	–
E28 [10], 4.1 nM	–	0.39
E28 [10], 12.3 nM	–	0.297
E28 [10], 37 nM	–	0.291
E28 [10], 111.1 nM	–	0.236
E28 [10], 333.3 nM	–	0.269
E28 [10], 1000 nM	–	0.218
E28 [10], 3000 nM	–	0.204
E31 [2], 4.1 nM	6.42	–
E31 [2], 12.3 nM	12.9	–
E31 [2], 37 nM	11.4	–
E31 [2], 111.1 nM	10.7	–
E31 [2], 333.3 nM	14.5	–
E31 [2], 1000 nM	10.1	–
E31 [2], 3000 nM	9.92	–
E31 [9], 4.1 nM	–	0.0459
E31 [9], 12.3 nM	–	0.0237
E31 [9], 37 nM	–	0.0459
E31 [9], 111.1 nM	–	0.0325
E31 [9], 333.3 nM	–	0.0444
E31 [9], 1000 nM	–	0.0237
E31 [9], 3000 nM	–	0.0163
E34 [6], 4.1 nM	7.02	–
E34 [6], 12.3 nM	7.36	–
E34 [6], 37 nM	6.67	–
E34 [6], 111.1 nM	7.53	–
E34 [6], 333.3 nM	8.9	–
E34 [6], 1000 nM	8.95	–
E34 [6], 3000 nM	8.01	–
E34 [13], 4.1 nM	–	0.338
E34 [13], 12.3 nM	–	0.282
E34 [13], 37 nM	–	0.405
E34 [13], 111.1 nM	–	0.322
E34 [13], 333.3 nM	–	0.375
E34 [13], 1000 nM	–	0.226
E34 [13], 3000 nM	–	0.281
E57 [7], 4.1 nM	5.33	–
E57 [7], 12.3 nM	5.47	–
E57 [7], 37 nM	6.45	–
E57 [7], 111.1 nM	5.46	–
E57 [7], 333.3 nM	5.55	–
E57 [7], 1000 nM	5.53	–
E57 [7], 3000 nM	6.15	–
E57 [14], 4.1 nM	–	0.0751
E57 [14], 12.3 nM	–	0.0815
E57 [14], 37 nM	–	0.0676
E57 [14], 111.1 nM	–	0.0629
E57 [14], 333.3 nM	–	0.057
E57 [14], 1000 nM	–	0.0602
E57 [14], 3000 nM	–	0.057
FT3469 [4], 4.1 nM	3.93	–
FT3469 [4], 12.3 nM	4.58	–
FT3469 [4], 37 nM	4.48	–
FT3469 [4], 111.1 nM	5.12	–
FT3469 [4], 333.3 nM	6.19	–
FT3469 [4], 1000 nM	5.04	–
FT3469 [4], 3000 nM	5.6	–
FT3469 [11], 4.1 nM	–	0.427
FT3469 [11], 12.3 nM	–	0.416
FT3469 [11], 37 nM	–	0.414
FT3469 [11], 111.1 nM	–	0.334
FT3469 [11], 333.3 nM	–	0.372
FT3469 [11], 1000 nM	–	0.388
FT3469 [11], 3000 nM	–	0.353
